{"source": "patent US20150159167A1", "about": "“Plants Tolerant to HPPD Inhibitor Herbicides” (Bayer CropScience AG, priority 2009, published 2015)", "key": {"[1]": {"test_system": "Synechococcus sp. HPPD \"SEQ ID No. 5\"", "assay": "HPPD activity in presence of HPPD inhibitors (pI50, % inhibition)", "format": "biochemical", "conditions": "for percentage of inhibition: 5.0 × 10^−6 M inhibitor, compared to activity in absence of inhibitor; for pI50: 2 mM HPP, 3 minutes incubation", "text": "(§1) In this content, pI50-value means the log value of the concentration of inhibitor necessary to inhibit 50% of the enzyme activity in molar concentration."}, "wild type tobacco plants": {"test_system": "wild type tobacco plants", "assay": "Glasshouse response to bicyclopyrone, injury classes", "format": "in vivo, Nicotiana tabacum", "conditions": "100 g AI/ha, 7 DAT; line WT", "text": "(§2) Seeds of wild type tobacco plants and T1 tobacco plants carrying the gene from Synechococcus sp. FMP38e coding for HPPD were sown on MS media (Murashige and Skoog 1964) supplemented with […] kanamycin. After 4 weeks, rooted green plantlets were transferred to soil and grown for 3 weeks in the glasshouse as described above then sprayed with a mixture containing bicyclopyrone (100 g AI/ha), ammonium sulfate and methyl ester raps oil. The plants were classified in two categories based on the phenotype developed in response to the herbicide seven days after the treatment. […] In this case, only plants containing at least one T-DNA were exposed to the herbicidal treatment."}, "[2]": {"test_system": "T1 tobacco plants carrying FMP38e", "assay": "Glasshouse response to bicyclopyrone, injury classes", "format": "in vivo, Nicotiana tabacum", "conditions": "100 g AI/ha, 7 DAT", "text": "as §2"}, "[3]": {"biological_target": "Synechococcus sp. HPPD \"SEQ ID No. 5\"", "assay": "HPLC assay of HPPD activity, in vitro kinetic properties", "format": "biochemical", "procedure": "Km, Vmax, and kcat values for different HPPD enzyme preparations and Ki, K1=Kon, and K−1=Koff for different HPPD inhibitors were determined using a HPLC assay for measurements of HPPD activity. […] All assays were started by the addition of HPPD enzyme to the assay mixture and stopped at a series of times between 0 and 240 s by addition of 200 μl of the reaction mixture to reaction assay tubes containing 20 μl 10% perchloric acid. Precipitated protein was pelleted by a 5 minute centrifugation at 10,000 g. […] A standard set of concentrations of HGA were used to provide a standard curve in order to calibrate the 292 nm absorbance of the HGA peak versus HGA concentration.\nFor Km and Vmax value determinations the initial rates of the HPPD reaction at different substrate concentrations were determined from plots of HGA formed versus time and fitted to the Michaelis-Menten equation for unireactant enzymes using the ID Business Solutions Ltd. (idbs.com) XLfit software suite. For the determination of Ki, K1=Kon, and K=−1=Koff values the time-courses of the HPPD reaction at different inhibitor concentrations were fitted to the equations for Mechanism A, competitive inhibition, for tight-binding inhibitors (Cha, S. (1975) Tight-binding inhibitors-I. Kinetic behaviour. Biochemical Pharmacology 24, 2177-2185) using the ID Business Solutions Ltd. XLfit software suite\n(§3) In below given table 1, “Km” (Michaelis-Menten constant) means the kinetic parameter that is used to characterise an enzyme, and it is defined as the concentration of substrate that permits half maximal rate of the reaction. Km is further defined as the substrate concentration at which the reaction rate reaches half of its maximum value (Vmax/2) where Vmax has the meaning of being the maximum velocity of the reaction.\n(§4) Kon=K1 equals the association rate constant of the […] binding and Koff=K−1 equals the rate constant of the enzyme-inhibitor complex dissociation. Ki defines the inhibition constant."}, "[4]": {"biological_target": "T1, Arabidopsis thaliana HPPD \"SEQ ID No. 10\" (Arabidopsis thaliana, UniProt P93836)", "T1 construct": "Preparation of Synechococcus sp; Ala + 6xHis (N); made in house; host or cells: E. coli K-12 BL21 (pQE30-AtHPPD)", "T1 sequence (P93836 with tags, fused parts or gaps)": "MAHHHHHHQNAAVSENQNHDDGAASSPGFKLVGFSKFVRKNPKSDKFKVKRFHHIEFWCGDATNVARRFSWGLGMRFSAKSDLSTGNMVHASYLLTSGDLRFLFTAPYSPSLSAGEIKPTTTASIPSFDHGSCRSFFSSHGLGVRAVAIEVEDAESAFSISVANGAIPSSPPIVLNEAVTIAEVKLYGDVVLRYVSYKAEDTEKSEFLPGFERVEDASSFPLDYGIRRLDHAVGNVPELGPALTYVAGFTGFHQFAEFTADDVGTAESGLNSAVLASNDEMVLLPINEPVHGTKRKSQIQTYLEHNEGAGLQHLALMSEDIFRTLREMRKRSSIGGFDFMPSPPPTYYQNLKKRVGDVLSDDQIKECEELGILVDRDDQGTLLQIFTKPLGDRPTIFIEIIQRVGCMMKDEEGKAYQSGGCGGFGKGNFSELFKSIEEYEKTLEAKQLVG", "assay": "HPLC assay of HPPD activity, in vitro kinetic properties", "format": "biochemical", "conditions": "substrate HPP varied between 10 and 400 μM", "procedure": "Km, Vmax, and kcat values for different HPPD enzyme preparations and Ki, K1=Kon, and K−1=Koff for different HPPD inhibitors were determined using a HPLC assay for measurements of HPPD activity. […] All assays were started by the addition of HPPD enzyme to the assay mixture and stopped at a series of times between 0 and 240 s by addition of 200 μl of the reaction mixture to reaction assay tubes containing 20 μl 10% perchloric acid. Precipitated protein was pelleted by a 5 minute centrifugation at 10,000 g.\nFor Km and Vmax value determinations the initial rates of the HPPD reaction at different substrate concentrations were determined from plots of HGA formed versus time and fitted to the Michaelis-Menten equation for unireactant enzymes using the ID Business Solutions Ltd. (idbs.com) XLfit software suite.\nas §3, §4"}, "wild-type soybean shoots": {"test_system": "wild-type soybean shoots", "assay": "Soybean shoot greening under isoxaflutole selection", "format": "in vivo", "conditions": "same amount of isoxaflutole", "text": "(§5) Soybean transformation is achieved using methods well known in the art, such as the one described using the Agrobacterium tumefaciens mediated transformation soybean half-seed explants described by Paz et al. (2006, Plant cell Rep. 25:206). Transformants were identified using Isoxaflutole as selection marker. The appearance of green shoots was observed, and documented as an indicator of tolerance to the herbicide isoxaflutole. […] Tolerant green shoots were transferred to rooting media or grafted. Rooted plantlets are transferred to the glasshouse after an acclimation period."}, "[5]": {"test_system": "transgenic soybean shoots (FMP38)", "assay": "Soybean shoot greening under isoxaflutole selection", "format": "in vivo", "conditions": "isoxaflutole as selection marker", "text": "as §5"}, "[6]": {"biological_target": "T1, Arabidopsis thaliana HPPD \"SEQ ID No. 10\"", "assay": "HPPD activity in presence of HPPD inhibitors (pI50, % inhibition)", "format": "biochemical", "text": "as §1"}, "[7]": {"conditions": "substrate HPP varied between 10 and 400 μM"}}, "data": [{"smiles": "Cc1ccc(C(=O)COc2c(C(=O)c3ccc(Cl)c(C)c3Cl)c(C)nn2C)cc1", "note": "[Benzofenap]", "values": [{"measurement": "percentage of inhibition", "setting": "[1]", "result": 31, "unit": "%"}]}, {"smiles": "COCCOCc1nc(C(F)(F)F)ccc1C(=O)C1=C(O)C2CCC(C2)C1=O", "note": "(stereo not drawn) [Bicyclopyrone, 4-hydroxy-3-[[2-[(2-methoxyethoxy)methyl]-6-(trifluoromethyl)-3-pyridinyl]carbonyl]bicyclo[3.2.1]oct-3-en-2-one]", "values": [{"measurement": "pI50", "setting": "[1]", "result": 5.0}, {"measurement": "percentage of inhibition", "setting": "[1]", "result": 19, "unit": "%"}, {"measurement": "% of tolerant plant", "setting": "wild type tobacco plants", "result": 0, "unit": "%"}, {"measurement": "Class I (injury: 0-30%)", "setting": "wild type tobacco plants", "result": 0}, {"measurement": "Class II (injury: 31-100%)", "setting": "wild type tobacco plants", "result": 12}, {"measurement": "% of tolerant plant", "setting": "[2]; line 34", "result": 17, "unit": "%"}, {"measurement": "Class I (injury: 0-30%)", "setting": "[2]; line 34", "result": 59}, {"measurement": "Class II (injury: 31-100%)", "setting": "[2]; line 34", "result": 6}, {"measurement": "% of tolerant plant", "setting": "[2]; line 39", "result": 46, "unit": "%"}, {"measurement": "Class I (injury: 0-30%)", "setting": "[2]; line 39", "result": 100}, {"measurement": "Class II (injury: 31-100%)", "setting": "[2]; line 39", "result": 48}, {"measurement": "% of tolerant plant", "setting": "[2]; line 197", "result": 15, "unit": "%"}, {"measurement": "Class I (injury: 0-30%)", "setting": "[2]; line 197", "result": 89}, {"measurement": "Class II (injury: 31-100%)", "setting": "[2]; line 197", "result": 15}]}, {"smiles": "CS(=O)(=O)c1cc(C(F)(F)F)ccc1C(=O)C(C#N)C(=O)C1CC1", "note": "(stereo not drawn) [Diketonitrile, 2-cyano-3-cyclopropyl-1-(2-methylsulphonyl-4-trifluoromethylphenyl)-propane-1,3-dione]", "values": [{"measurement": "Ki", "setting": "[3]; 2 mM HPP", "result": 12, "unit": "µM"}, {"measurement": "pI50", "setting": "[1]", "result": 5.5}, {"measurement": "percentage of inhibition", "setting": "[1]", "result": 62, "unit": "%"}]}, {"smiles": "O=C(O)C(=O)Cc1ccc(O)cc1", "note": "[HPP, para-hydroxyphenylpyruvate]", "values": [{"measurement": "Km", "setting": "[3]; [7]", "result": 5.1, "unit": "µM"}, {"measurement": "Vmax", "setting": "[3]; [7]", "result": 1.2, "unit": "µM"}, {"measurement": "Km", "setting": "[4]", "result": 6.3, "unit": "µM"}, {"measurement": "Vmax", "setting": "[4]", "result": 1.2, "unit": "µM"}]}, {"smiles": "CS(=O)(=O)c1cc(C(F)(F)F)ccc1C(=O)c1cnoc1C1CC1", "note": "[Isoxaflutole, (5-cyclopropyl-4-isoxazolyl)[2-(methylsulfonyl)-4-(trifluoromethyl)phenyl]methanone]", "values": [{"measurement": "bleaching of shoots", "setting": "wild-type soybean shoots", "result": "entirely bleached"}, {"measurement": "transgenic tested shoots showing normal greening", "setting": "[5]", "result": 0.6, "unit": "%"}]}, {"smiles": "CS(=O)(=O)c1ccc(C(=O)C2C(=O)CCCC2=O)c([N+](=O)[O-])c1", "note": "[Mesotrione, 2-[4-(methylsulfonyl)-2-nitrobenzoyl]-1,3-cyclohexanedione]", "values": [{"measurement": "pI50", "setting": "[1]", "result": 5.4}, {"measurement": "percentage of inhibition", "setting": "[1]", "result": 47, "unit": "%"}]}, {"smiles": "Cc1nn(C)c(O)c1C(=O)c1ccc(C(F)(F)F)cc1S(C)(=O)=O", "note": "[Pyrasulfotole]", "values": [{"measurement": "pI50", "setting": "[1]", "result": 4.7}, {"measurement": "percentage of inhibition", "setting": "[1]", "result": 16, "unit": "%"}, {"measurement": "pI50", "setting": "[6]; 2 mM HPP, 3 minutes incubation", "result": 5.4}, {"measurement": "percentage of inhibition", "setting": "[6]; 5.0 × 10^−6 M inhibitor, compared to activity in absence of inhibitor", "result": 69, "unit": "%"}]}, {"smiles": "CS(=O)(=O)c1ccc(C(=O)C2C(=O)CCCC2=O)c(Cl)c1", "note": "[Sulcotrione, 2-[2-chloro-4-(methylsulfonyl)benzoyl]-1,3-cyclohexanedione]", "values": [{"measurement": "percentage of inhibition", "setting": "[1]", "result": 19, "unit": "%"}]}, {"smiles": "CS(=O)(=O)c1ccc(C(=O)C2C(=O)CCCC2=O)c(Cl)c1COCC1CCCO1", "note": "(stereo not drawn) [Tefuryltrione, 2-[2-chloro-4-(methylsulfonyl)-3-[[(tetrahydro-2-furanyl)methoxy]methyl]benzoyl]-1,3-cyclohexanedione]", "values": [{"measurement": "pI50", "setting": "[1]", "result": 5.6}, {"measurement": "percentage of inhibition", "setting": "[1]", "result": 72, "unit": "%"}]}]}
